Source: PMC11280343, “Rubus urticifolius Compounds with Antioxidant Activity, and Inhibition Potential against Tyrosinase, Melanin, Hyaluronidase, Elastase, and Collagenase” (Pharmaceuticals, 2024)
Like-named read-outs stand apart in the source and are kept apart here.

Experiments:
[1] = NR viability assay, HEK001; format: cell-based, Homo sapiens; conditions: human
Protocol: (§1) The HEK001 (Homo sapiens cutaneous keratinocyte, CCL-2404), WS1 (Homo sapiens cutaneous fibroblast, CRL-1502), HMCB (Homo sapiens cutaneous melanoma, CRL-9607), and THP-1 (Homo sapiens peripheral blood monocyte, TIB-202) cell lines used in this study were obtained from the American Type Culture Collection (ATCC, Manassas, VA, USA). Cultivated in a Roswell Park Memorial Institute (RPMI) 1640 medium (RPMI 1640 Merck, Cat. No. R7755, New York, NY, USA) supplemented with 2 mM L-glutamine (≥99% Merck, Cat. No. 56-85-9), 10% fetal bovine serum (FBS Merck, Cat. No. TMS-016, St. Louis, MO, USA), and 10,000 units of penicillin and 10 mg streptomycin/mL (Merck, Cat. No. P4333, St. Louis, MO, USA) in culture flasks, the cells were maintained in an incubator under normoxic conditions (20–21% O2) and a humidified atmosphere (5% CO2 at 37 °C).
(§2) Mother solutions of samples (extracts, fractions, and compounds) were prepared at a concentration of […] using dimethyl sulfoxide (DMSO ≥ 99.9% Merck, Cat. No. 67-68-5, St. Louis, MO, USA) as the solvent. From these mother solutions, dilutions were prepared at concentrations ranging from 100 to 0.20 μg/mL or μM in culture medium containing 0.5% DMSO. Additionally, a negative control group consisting solely of culture medium with 0.5% DMSO was included to assess its potential cytotoxic effect on the cells.
(§3) Cell viability was evaluated using a colorimetric assay in 96-well plates, employing 3-amino-7-dimethylamino-2-methylphenazine hydrochloride salt reagent (NR, Merck, Cat. No. 553-24-2, St. Louis, MO, USA).
(§4) HEK001, WS1, HMCB, and THP-1 cell lines were cultured in 96-well plates at 37 °C with 5% CO2 until > 90% confluency was achieved (1 × 10^6 cells/well). Subsequently, the cultures were treated with sample dilutions (100–0.20 μg/mL or μM) for 72 h at 37 °C with 5% CO2 in phenol red-free RPMI. The supernatant was then discarded and the cells were washed with phosphate-buffered saline (PBS) before being incubated with […] NR (50 μg/mL; 173 μM) for 3 h at 37 °C with 5% CO2. NR labelling was performed after DMSO treatment. After incubation, the labelled sample dilutions were rapidly washed with a fixative solution composed of 1% calcium chloride (CaCl2 Merck, Cat. No. 10043-52-4, St. Louis, MO, USA) and 0.5% formaldehyde solution (≥36.0% in H2O Merck, Cat. No. 50-00-0, St. Louis, MO, USA), then diluted with 100 μL of the NR extraction solution. Finally, the plates were read at 540 nm using a microplate reader (Anthos 2020, version 2.0.5, Biochrom Ltd., Cambridge, UK).

NR viability assay, WS1 = format: cell-based, Homo sapiens; conditions: human
Protocol: as §1, §2, §3, §4

Nrf2 [2] = experiment: Nrf2 activation assay, HMCB; format: cell-based; conditions: Homo sapiens, 72 h, read-out: Activation of Nrf2 production EC50
Protocol: (§5) To determine the antioxidant response of the samples (at the same concentration as in the viability assay), Nrf2 activation assay was used, following the protocol carried out by Apaza Ticona et al.. Cells were cultured in 96-well plates (1 × 10^6 cells/well). […] Absorbance was measured at 540 nm using a microplate reader.

Nrf2 [3] = experiment: Nrf2 activation assay, WS1; format: cell-based; conditions: Homo sapiens, read-out: Activation of Nrf2 production EC50
Protocol: as §5

NR viability assay, HMCB = format: cell-based, Homo sapiens; conditions: human
Protocol: as §1, §2, §3, §4

[4] = target: T1, elastase from porcine pancreas (Sus scrofa, UniProt P00772); experiment: Elastase-inhibitory effect assay; format: biochemical; conditions: for Elastase Inhibition (%): inhibition percentage 'at an IC50', concentration not otherwise stated
T1 construct: elastase from porcine pancreas (7.5 units/mL); from tissue; host or cells: porcine pancreas
Protocol: The elastase-inhibitory effect was evaluated, implementing the protocol adapted from Tu and Tawata.
A mixture containing N-succinyl-Ala-Ala-Ala-p-nitroanilide (AAAPVN, Merck, Cat. No. 52299-14-6, St. Louis, MO, USA) elastase substrate in 0.1232 M Tris-HCl buffer solution (pH 8) was prepared to achieve a concentration of 1.015 mM. This elastase substrate was combined with 10 μL of the test samples at the same concentrations used as in the viability assay in 96-well plates and pre-incubated at room temperature (25 ± 5 °C) for 10 min. Subsequently, the reaction was initiated by adding 10 μL of elastase from porcine pancreas (7.5 units/mL) in Tris buffer solution to the pre-incubated mixtures. Absorbance was then measured at 410 nm using a microplate reader.

Nrf2 [5] = experiment: Nrf2 activation assay, THP-1; format: cell-based
Protocol: as §5

NF-κB [6] = experiment: NF-κB inhibition assay (LPS-stimulated), THP-1; format: cell-based; conditions: Homo sapiens, read-out: NF-κB Inhibition at 72 h IC50 ± SEM
Protocol: as §5, with “anti-inflammatory activity” for “antioxidant response”, “NF-κB inhibition” for “Nrf2 activation”, “450” for “540”

NF-κB [7] = experiment: NF-κB inhibition assay (LPS-stimulated), HMCB; format: cell-based; conditions: Homo sapiens, 72 h, read-out: NF-κB Inhibition at 72 h IC50 ± SEM
Protocol: as §5, with “anti-inflammatory activity” for “antioxidant response”, “NF-κB inhibition” for “Nrf2 activation”, “450” for “540”

THP-1 cell line = experiment: NR viability assay, THP-1; format: cell-based, Homo sapiens; conditions: 72 h
Protocol: as §1, §2, §3, §4

HEK001 cell line = experiment: NR viability assay, HEK001; format: cell-based, Homo sapiens; conditions: HEK001, NR assay, 72 h
Protocol: as §1, §2, §3, §4

WS1 cell line = experiment: NR viability assay, WS1; format: cell-based, Homo sapiens; conditions: WS1, NR assay, 72 h
Protocol: as §1, §2, §3, §4

HMCB cell line = experiment: NR viability assay, HMCB; format: cell-based, Homo sapiens; conditions: HMCB, NR assay, 72 h
Protocol: as §1, §2, §3, §4

[8] = Homo sapiens, THP-1, 72 h; read-out: Activation of Nrf2 production EC50

T1 sequence (P00772 27-266): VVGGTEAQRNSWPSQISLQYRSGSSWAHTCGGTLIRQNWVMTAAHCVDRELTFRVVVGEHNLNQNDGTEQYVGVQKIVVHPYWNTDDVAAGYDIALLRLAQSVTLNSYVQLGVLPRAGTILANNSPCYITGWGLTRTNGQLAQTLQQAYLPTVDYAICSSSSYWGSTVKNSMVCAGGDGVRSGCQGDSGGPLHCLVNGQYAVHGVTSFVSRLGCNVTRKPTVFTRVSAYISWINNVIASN

`CNC(=O)c1ccccc1NC(=O)/C=C/c1ccc(OC)c(OC)c1` [Compound 1, (E)-2-(3-(3,4-dimethoxyphenyl)acrylamido)-N-methylbenzamide] showed a CC50 at 72 h ([1]; HEK001 cells (cutaneous keratinocytes), HEK001, NR assay, 72 h, read-out: Viability CC50) of 76.2 µM, a CC50 at 72 h (NR viability assay, WS1; WS1 cells (cutaneous fibroblasts), WS1, NR assay, 72 h, read-out: Viability CC50) of 73 µM and an EC50 (Nrf2 [2]) of 0.385 µM. For the same molecule, the EC50 (Nrf2 [3]; WS1, 72 h) was 0.268 µM, the CC50 at 72 h (NR viability assay, HMCB; HMCB cells (cutaneous melanoma), HMCB, NR assay, 72 h, read-out: Viability CC50) was 69.8 µM and the “Elastase Inhibition (%)” value [4] was 60.76 ± 1.44%. It also gave an IC50 ([4]; read-out: Anti-Elastase IC50) of 80.1 ± 1.92 µM, an EC50 (Nrf2 [5]; [8]) of 0.116 µM and an IC50 (NF-κB [6]; THP-1, LPS-stimulated, 72 h) of 12.7 ± 0.34 µM. For the same molecule, the IC50 (NF-κB [7]; LPS-stimulated) was 9.82 ± 0.65 µM.

Molecule `O=C(O)c1cc(O)c2ccccc2n1` [Compound 2, 4-hydroxyquinoline-2-carboxylic acid] has a CC50 at 72 h [1] of 95 µM, a CC50 at 72 h (NR viability assay, WS1) of 89.9 µM and an EC50 (Nrf2 [2]) of 0.506 µM. For the same molecule, the EC50 (Nrf2 [3]; WS1, 72 h) was 0.361 µM, the CC50 (THP-1 cell line; human) was greater than 100 µM and the CC50 at 72 h (NR viability assay, HMCB) was 87.7 µM. For the same molecule, the “Elastase Inhibition (%)” value [4] was 17.68 ± 1.46%, the IC50 ([4]; read-out: Anti-Elastase IC50) was 168 ± 3.09 µM and the EC50 (Nrf2 [5]; [8]) was 0.49 µM. It also gave an IC50 (NF-κB [6]; THP-1, LPS-stimulated, 72 h) of 37.2 ± 0.72 µM and an IC50 (NF-κB [7]; LPS-stimulated) of 30.7 ± 0.98 µM.

Work on `N#C/C(=C\c1ccc(O)cc1)C(=O)O` [Compound 3, (E)-2-cyano-3-(4-hydroxyphenyl)acrylic acid] yielded a CC50 (HEK001 cell line) greater than 100 µM, a CC50 at 72 h ([1]; HEK001, NR assay, 72 h, read-out: Viability CC50) of 130 µM and a CC50 (WS1 cell line) greater than 100 µM. For the same molecule, the CC50 at 72 h (NR viability assay, WS1; WS1, NR assay, 72 h, read-out: Viability CC50) was 107 µM, the EC50 (Nrf2 [2]) was 1.02 µM and the EC50 (Nrf2 [3]; 72 h) was 0.983 µM. It also gave a CC50 (THP-1 cell line; THP-1, NR assay, read-out: Viability CC50) greater than 100 µM, a CC50 (HMCB cell line) of 98.6 µM and a CC50 at 72 h (NR viability assay, HMCB; HMCB, NR assay, 72 h, read-out: Viability CC50) of 98.4 µM. For the same molecule, the IC50 [4] was 192 ± 3.78 µM, the “Elastase Inhibition (%)” value [4] was 6.19 ± 1.44% and the EC50 (Nrf2 [5]; Homo sapiens, THP-1, 72 h, read-out: Activation of Nrf2 production EC50) was 0.707 µM. The IC50 (NF-κB [6]; THP-1, 72 h) was 58.8 ± 0.86 µM and the IC50 (NF-κB [7]) was 51.42 ± 0.13 µM.
